Entries after “also recorded” stand apart in the source; their conditions may differ.
Key:
[1] = test system: PPARγ; test: PPARγ expression by western blot in HT-29 cells; assay type: cell-based; settings: for induction of PPARγ expression at the protein levels (in words): HT-29 cell line; for mean induction of PPARγ protein levels quantified by western blot: cells treated during 24 hours
Description: (§1) The colon cell line HT-29 STD (ATCC HTB-38) was routinely grown in DMEM supplemented with 10% heat-FCS, and antibiotics. Cells were grown in monolayers, incubated at 37° C. in 5% CO2 and 95% relative humidity.
The total proteins were obtained by cell homogenization in an extraction buffer consisting of PBS with 2% Triton™, Phenyl Methyl Sulphonyl Fluoride (PMSF) 100 mM and a classical protease inhibitor cocktail. The total proteins were then separated by polyacrylamide gel electrophoresis and electroblotted. Polyvinylidendifluoride (PVDF) membranes were incubated overnight with rabbit polyclonal primary antibody directed against PPARγ (dilution 1/500, TEBU, Le Perray en Yveline, France). β-actin was detected using a rabbit monoclonal primary antibody diluted at 1/10,000 (Sigma). Immunodetection with a secondary peroxidase-conjugated antibody (1/1000, Dako™, Trappes, France) and chemiluminescence was performed according to the manufacturer's protocol (ECL™, Amersham Pharmacia Biotech™, Orsay, France). Optical density values of PPARγ were given for each condition in proportion to the quantity of the internal control β-actin in the same sample.

[2] = target: T1, PPARγ (Homo sapiens, UniProt P37231); test: PPARγ activation, PPRE luciferase reporter in transfected HT-29 STD cells (Example 5); assay type: cell-based; settings: 30 mM; for increase of the reporter gene activity: 24 hours, versus non-stimulated cells
T1 construct: HT-29 STD cells were transiently transfected using the Effectene™ transfection reagent; endogenous in cells; host or cells: HT-29 STD (ATCC HTB-38)
T1 sequence (P37231 1-505): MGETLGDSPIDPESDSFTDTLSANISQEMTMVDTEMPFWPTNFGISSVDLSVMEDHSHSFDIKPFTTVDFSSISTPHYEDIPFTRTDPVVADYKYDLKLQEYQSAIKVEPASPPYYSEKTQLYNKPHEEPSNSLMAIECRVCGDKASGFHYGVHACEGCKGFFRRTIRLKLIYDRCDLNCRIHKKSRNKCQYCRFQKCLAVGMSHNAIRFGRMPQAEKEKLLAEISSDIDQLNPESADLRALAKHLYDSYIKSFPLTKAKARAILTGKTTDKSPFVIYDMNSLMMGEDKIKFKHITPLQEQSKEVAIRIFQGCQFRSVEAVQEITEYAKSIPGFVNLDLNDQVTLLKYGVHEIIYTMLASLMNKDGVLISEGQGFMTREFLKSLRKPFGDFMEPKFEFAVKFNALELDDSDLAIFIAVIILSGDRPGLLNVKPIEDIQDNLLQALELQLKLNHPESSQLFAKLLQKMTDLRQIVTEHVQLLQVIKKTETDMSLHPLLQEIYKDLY
Description: as §1
HT-29 STD cells were transiently transfected using the Effectene™ transfection reagent (Qiagen™) according to instructions from the manufacturer. To test PPARγ activation, we performed transfection with 500 ng of a minimal promoter construct containing two copies of PPRE obtained from the cytochrome p450 4A (2×CYP). The renilla luciferase plasmid (0.1 μg/well) was also transfected as an internal control for monitoring transfection efficiency and for normalizing the firefly luciferase activity. Transfected cells were left for 48 hours incubation at 37° C. […] The pH of the drug solutions was adjusted to 7.4 with NaOH. Total cell extracts were prepared using the Passive Lysis Buffer (Promega™, Madison, Wis.). Luciferase activity was assayed in 20 μl of the extract using the Promega™ Dual Luciferase assay system according to the manufacturer's protocol. Transfections were assayed in triplicate in at least three separate experiments. The luciferase activity was expressed as fold of the activity obtained in cells treated with the different molecules divided by luciferase activity from non-stimulated cells.
We investigated PPARγ transcriptional activity by transient transfections of epithelial cells with the renilla luciferase PPRE plasmids. Cells were stimulated with the different molecules during 24 hours.

[3] = test system: HT-29 STD cells; test: Cytotoxic effect on epithelial cells seen in the HT-29 experiments; assay type: cell-based; settings: 30 mM
Description: After 24 h of culture, HT-29 STD cells were treated during 24 h with the compounds A, B, C, D and F, at 30 mM. […] The pH of the drug solutions was adjusted to 7.4 with NaOH. Cells were fixed in PFA 4%, permeabilized in PBS containing 0.1% Triton X-100™ at 4° C. and then incubated with goat normal serum and blocking buffer (1% BSA in PBS) to minimize non-specific adsorption of the antibody.
(§2) After 24 h of culture, HT-29 STD cells were treated during 24 h with the compounds A, B, C, D, F, at a concentration of 30 mM. […] The pH of the drug solutions was adjusted to 7.4 with NaOH. Cells undergoing apoptosis were identified by enzymatic labelling of DNA strands using a terminal transferase dUTP nick end labelling assay (TUNEL assay, Roche Diagnostics™, Meylan, France). Counts of at least 500 cells/sample were systematically performed blindly in one experiment. The results were expressed as the mean±SEM of the number of stained cells.

[4] = Solubility of the molecules in the cell experiments; assay type: physicochemical; settings: reason for exclusion from the cell experiments
[5] = test system: HT-29 STD cells; test: Detection of apoptosis, TUNEL assay; assay type: cell-based; settings: 30 mM, 24 h
Description: as §2

Row | SMILES | induction of PPARγ expression at the protein levels (in words) [1] | mean induction of PPARγ protein levels quantified by western blot [1] [fold] | cytotoxic effect on epithelial cells [3] | also measured
1 | Nc1cc2c(c(C(=O)O)c1)OCC2 [C] | induce PPARγ expression | 2 | – | PPARγ activation (in words) [2]: induce PPARγ activation; increase of the reporter gene activity [2]: two-fold
2 | CCOc1ccc(N)cc1C(=O)NO [Compound D] | induce PPARγ expression | 2 | rapid cytotoxic effect; also recorded: direct cytotoxic effects | –
3 | CC1(C)OC(=O)c2cc(N)ccc2O1 [E] | – | – | – | solubility [4]: poor solubility
4 | COc1ccc(N)cc1C(=O)NO [A] | – | – | rapid cytotoxic effects; also recorded: direct cytotoxic effects | –
5 | CC(C)Oc1ccc(N)cc1C(=O)O [F] | induce PPARγ expression | 2 | – | apoptosis, share of epithelial cells (TUNEL) [5]: 80%; PPARγ activation (in words) [2]: induce PPARγ activation; increase of the reporter gene activity [2]: two-fold
6 | COc1cc(N)ccc1C(=O)NO [B] | – | – | rapid cytotoxic effects; also recorded: direct cytotoxic effects | –
7 | CC(C)N(c1ccc(O)c(C(=O)O)c1)C(C)C [G] | – | – | rapid cytotoxic effect; also recorded: direct cytotoxic effects | solubility [4]: poor solubility
